Assay results from patent publication US7566732B2, “Rhodanine compositions for use as antiviral agents” (priority 2003, dated 2009).

Molecular target: EVp28 (Gst-Evp28) ubiquitin ligase (Ectromelia virus, UniProt Q85318)
Assay: biochemical

| SMILES | IC50 |
| --- | --- |
| O=C1/C(=C\c2nc3ccccc3[nH]2)SC(=S)N1c1ccc(F)cc1 [Compound 307] | 92 nM |
| O=C1/C(=C\c2ccc(-c3cccc(C(F)(F)F)c3)o2)SC(=S)N1Cc1ccccc1 [Compound 54, (5E)-3-benzyl-2-thioxo-5-({5-[3-(trifluoromethyl)phenyl]-2-furyl}methylene)-1,3-thiazolidin-4-one] | 16 nM |
